Patent US20250345492A1, “AN ANTIBACTERIAL POLYPEPTIDE COMPOUND, A MEDICAL DEVICE, HYDROGEL AND USE THEREOF” (priority 2020, published 2025)
≈ marks a conversion by molar mass, not a printed value. Peptide text beside a SMILES is read from it.

How the values were obtained:
C. tropicalis ATCC750 = conditions: ATCC750
Text: (§1) With respect to the determination of antibacterial activity and antifungal activity of the antibacterial polypeptide compounds, the bacterial strains employed included: E. coli (ATCC 25922), E. coli (ATCC 43837), Pseudomonas aeruginosa (ATCC 27853), Klebsiella pneumoniae (ATCC 700603), Cronobacter sakazakii (ATCC 29544), Staphylococcus aureus (ATCC 29213), Bacillus subtilis (ATCC 23857) and Staphylococcus epidermidis (ATCC 12228); and the fungal strains employed included Candida albicans (ATCC 14053), Candida glabrata (ATCC 2001), Candida parapsilosis (ATCC 22019), Candida tropicalis (ATCC 750) and Candida krusei (ATCC 6258), all of which were standard strains from American Type Culture Collection. In addition, drug-resistant strains S-1a, S-2a, S-3a, S-4a, E-1b, E-2b, E-3b, E-4b, E-5b, P-1c, P-2c, P-3c, P-4c, P-5c, and clinically isolated fungal strains Candida glabrata 2-1 and Candida albicans 14-1, 14-2 and 14-3 were employed, all which were clinically isolated.
(§2) Simply, a proper amount of the cryopreserved bacterium or fungus was added to fresh MH/SD medium, and cultured on a shaker overnight at 180 rpm at 37° C. The obtained cells were seeded again and cultured on a shaker for 4-5 hours to obtain cells in logarithmic phase. The resulting cells were added to a 96-well plate (1×10^5 CFU/ml, 100 μL/well), and then 100 μL of polypeptide with different concentrations (1-256 μM) twice the final concentrations was added to corresponding well according to the 2-fold serial dilution method. The fresh medium was used as a negative control, which was prepared in triplicate for each concentration. After dosing, the 96-well plate was placed in an incubator at constant 37° C. and humidity for 12 hours to observe the results. According to naked eye observations, the concentration of the compound in the first transparent well following the turbid wells was recorded as the MIC of the compound, namely, the MIC value of the compound to the bacterium or fungus.

[1] = tested on: Bacillus subtilis (ATCC 23857); conditions: ATCC 23857
Text: as §1, §2

[2] = tested on: Staphylococcus epidermidis (ATCC 12228); conditions: ATCC 12228
Text: as §1, §2

C. krusei ATCC6258 = conditions: ATCC6258
Text: as §1, §2

[3] = tested on: Cronobacter sakazakii (ATCC 29544); conditions: ATCC 29544
Text: as §1, §2

C. parapsilosis ATCC2001 = conditions: ATCC2001
Text: as §1, §2

[4] = tested on: Pseudomonas aeruginosa (ATCC 27853); conditions: standard strain
Text: as §1, §2

C. glabrata ATCC22019 = conditions: ATCC22019
Text: as §1, §2

C. albicans ATCC14053 = conditions: ATCC14053
Text: as §1, §2

E. coli (ATCC 25922) = conditions: ATCC 25922
Text: as §1, §2

[5] = tested on: Staphylococcus aureus (ATCC 29213); conditions: ATCC 29213
Text: as §1, §2

[6] = tested on: P-4c, clinical isolated drug-resistant strain PA; conditions: strain P-4c (PA)
Text: as §1, §2

[7] = tested on: E-5b, clinical isolated drug-resistant strain ESBL; conditions: strain E-5b (ESBL)
Text: as §1, §2

[8] = tested on: E-2b, clinical isolated drug-resistant strain ESBL; conditions: strain E-2b (ESBL)
Text: as §1, §2

[9] = tested on: P-5c, clinical isolated drug-resistant strain PA; conditions: strain P-5c (PA)
Text: as §1, §2

[10] = tested on: P-3c, clinical isolated drug-resistant strain PA; conditions: strain P-3c (PA)
Text: as §1, §2

[11] = tested on: P-2c, clinical isolated drug-resistant strain PA; conditions: strain P-2c (PA)
Text: as §1, §2

[12] = tested on: E-3b, clinical isolated drug-resistant strain ESBL; conditions: strain E-3b (ESBL)
Text: as §1, §2

[13] = tested on: E-1b, clinical isolated drug-resistant strain ESBL; conditions: strain E-1b (ESBL)
Text: as §1, §2

[14] = tested on: P-1c, clinical isolated drug-resistant strain PA; conditions: strain P-1c (PA)
Text: as §1, §2

[15] = tested on: E-4b, clinical isolated drug-resistant strain ESBL; conditions: strain E-4b (ESBL)
Text: as §1, §2

## CC(C)C[C@H](NC(=O)[C@H](CCN)NC(=O)[C@H](CC(C)C)NC(=O)[C@H](CO)NC(=O)[C@H](CC(C)C)NC(=O)[C@H](CCN)NC(=O)[C@H](Cc1c[nH]c2ccccc12)NC(=O)[C@@H]1CCCN1)C(N)=O [Compound 10, Pro-Trp-Dab-Leu-Ser-Leu-Dab-Leu-NH2] (HELM PEPTIDE1{P.W.[Dab].L.S.L.[Dab].L.[am]}$$$$V2.0)
C. tropicalis ATCC750
  MIC C. tropicalis ATCC750: 8 µM (≈ 7.42 µg/mL)
[1]
  MIC B. subtilis ATCC23857: 16 µM (≈ 14.8 µg/mL)
[2]
  MIC S. epidermidis ATCC12228: 16 µM (≈ 14.8 µg/mL)
C. krusei ATCC6258
  MIC C. krusei ATCC6258: 32 µM (≈ 29.7 µg/mL)
[3]
  MIC C. sakazakii ATCC29544: 8 µM (≈ 7.42 µg/mL)
C. parapsilosis ATCC2001
  MIC C. parapsilosis ATCC2001: 16 µM (≈ 14.8 µg/mL)
[4]
  MIC P. aerugmosa ATCC27853: 32 µM (≈ 29.7 µg/mL)
C. glabrata ATCC22019
  MIC C. glabrata ATCC22019: 16 µM (≈ 14.8 µg/mL)
C. albicans ATCC14053
  MIC C. albicans ATCC14053: 32 µM (≈ 29.7 µg/mL)
E. coli (ATCC 25922)
  MIC C. coli ATCC25922: 16 µM (≈ 14.8 µg/mL)
[5]
  MIC S. aureus ATCC29213: 32 µM (≈ 29.7 µg/mL)

## gentamicin [reference compound]
[6]
  MIC: 50 µM
[7]
  MIC: 50 µM
[8]
  MIC: 50 µM
[9]
  MIC: 50 µM
[10]
  MIC: 25 µM
[11]
  MIC: 50 µM
[12]
  MIC: 50 µM
[13]
  MIC: 50 µM
[14]
  MIC: 50 µM
[15]
  MIC: 50 µM

## H-PFRLRLRL-NH2 [Compound 7]
C. tropicalis ATCC750
  MIC C. tropicalis ATCC750: 32 µM
[1]
  MIC B. subtilis ATCC23857: 8 µM
[2]
  MIC S. epidermidis ATCC12228: 16 µM
C. krusei ATCC6258
  MIC C. krusei ATCC6258: 32 µM
[3]
  MIC C. sakazakii ATCC29544: 32 µM
C. parapsilosis ATCC2001
  MIC C. parapsilosis ATCC2001: 8 µM
[4]
  MIC P. aerugmosa ATCC27853: 8 µM
C. glabrata ATCC22019
  MIC C. glabrata ATCC22019: 8 µM
C. albicans ATCC14053
  MIC C. albicans ATCC14053: 8 µM
E. coli (ATCC 25922)
  MIC C. coli ATCC25922: 8 µM
[5]
  MIC S. aureus ATCC29213: 64 µM

## CC(C)C[C@H](NC(=O)[C@H](CCCCN)NC(=O)[C@H](CC(C)C)NC(=O)[C@H](CCCCN)NC(=O)[C@H](CC(C)C)NC(=O)[C@H](CCN)NC(=O)[C@H](Cc1ccccc1)NC(=O)[C@@H]1CCCN1)C(N)=O [Compound 3, Pro-Phe-Dab-Leu-Lys-Leu-Lys-Leu-NH2] (HELM PEPTIDE1{P.F.[Dab].L.K.L.K.L.[am]}$$$$V2.0)
C. tropicalis ATCC750
  MIC C. tropicalis ATCC750: 32 µM (≈ 30.6 µg/mL)
[1]
  MIC B. subtilis ATCC23857: 16 µM (≈ 15.3 µg/mL)
[2]
  MIC S. epidermidis ATCC12228: 16 µM (≈ 15.3 µg/mL)
C. krusei ATCC6258
  MIC C. krusei ATCC6258: 64 µM (≈ 61.3 µg/mL)
[3]
  MIC C. sakazakii ATCC29544: 32 µM (≈ 30.6 µg/mL)
C. parapsilosis ATCC2001
  MIC C. parapsilosis ATCC2001: 16 µM (≈ 15.3 µg/mL)
[4]
  MIC P. aerugmosa ATCC27853: 32 µM (≈ 30.6 µg/mL)
C. glabrata ATCC22019
  MIC C. glabrata ATCC22019: 32 µM (≈ 30.6 µg/mL)
C. albicans ATCC14053
  MIC C. albicans ATCC14053: 32 µM (≈ 30.6 µg/mL)
E. coli (ATCC 25922)
  MIC C. coli ATCC25922: 32 µM (≈ 30.6 µg/mL)
[5]
  MIC S. aureus ATCC29213: 128 µM (≈ 123 µg/mL)

## H-PFRLRLHL-NH2 [Compound 5]
C. tropicalis ATCC750
  MIC C. tropicalis ATCC750: 32 µM
[1]
  MIC B. subtilis ATCC23857: 16 µM
[2]
  MIC S. epidermidis ATCC12228: 32 µM
C. krusei ATCC6258
  MIC C. krusei ATCC6258: 64 µM
[3]
  MIC C. sakazakii ATCC29544: 32 µM
C. parapsilosis ATCC2001
  MIC C. parapsilosis ATCC2001: 16 µM
[4]
  MIC P. aerugmosa ATCC27853: 32 µM
C. glabrata ATCC22019
  MIC C. glabrata ATCC22019: 16 µM
C. albicans ATCC14053
  MIC C. albicans ATCC14053: 16 µM
E. coli (ATCC 25922)
  MIC C. coli ATCC25922: 16 µM
[5]
  MIC S. aureus ATCC29213: 128 µM

## H-PFKLKLHL-NH2 [Compound 1]
C. tropicalis ATCC750
  MIC C. tropicalis ATCC750: 32 µM
[1]
  MIC B. subtilis ATCC23857: 32 µM
[2]
  MIC S. epidermidis ATCC12228: 32 µM
C. krusei ATCC6258
  MIC C. krusei ATCC6258: 64 µM
[3]
  MIC C. sakazakii ATCC29544: 32 µM
C. parapsilosis ATCC2001
  MIC C. parapsilosis ATCC2001: 32 µM
[4]
  MIC P. aerugmosa ATCC27853: 32 µM
C. glabrata ATCC22019
  MIC C. glabrata ATCC22019: 32 µM
C. albicans ATCC14053
  MIC C. albicans ATCC14053: 32 µM
E. coli (ATCC 25922)
  MIC C. coli ATCC25922: 32 µM
[5]
  MIC S. aureus ATCC29213: 128 µM
